Residue numbers refer to the chain shown, from its start.
Columns and labels:
[1] = system: malic enzyme; conditions: Rognstad & Katz, 1979; cited from earlier work
[2] = molecular target: T1, Metallosphaera sedula succinic semialdehyde reductase (Ms-SSR), wild type, SEQ ID No. 16 (Metallosphaera sedula, UniProt A4YGN0); assay: Malate semialdehyde reductase activity; format: biochemical; conditions: NADH or NADPH, pH 7.5, 30° C., average of at least two independent experiments
T1 construct: full length 360 aa
T1 sequence (A4YGN0 1-360): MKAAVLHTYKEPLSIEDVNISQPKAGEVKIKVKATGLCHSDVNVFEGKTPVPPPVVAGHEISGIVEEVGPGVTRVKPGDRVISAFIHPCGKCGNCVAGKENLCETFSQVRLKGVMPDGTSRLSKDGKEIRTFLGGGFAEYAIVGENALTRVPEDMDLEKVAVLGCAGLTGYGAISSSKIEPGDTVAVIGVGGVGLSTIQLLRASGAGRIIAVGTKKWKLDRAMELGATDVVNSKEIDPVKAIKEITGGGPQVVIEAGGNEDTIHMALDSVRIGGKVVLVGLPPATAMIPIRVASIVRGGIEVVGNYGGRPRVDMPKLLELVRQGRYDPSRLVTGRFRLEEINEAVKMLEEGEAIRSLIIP
Procedure: To identify a suitable 2,4 DHB dehydrogenase, beta-hydroxyacid dehydrogenases from different biological sources were tested for their ability to reduce malate semialdehyde. […] The genes YPR1, 4hbdh, yqhD, and Ms-SSR were amplified using primers listed in Table 5 and cloned into vector pET28 (restriction enzymes see Table 5) yielding plasmids pET28-Sce-YPR1, pET28-Pgi-4-hbdh, pET28-Eco-yqhd and pET28-Mse-SSR, respectively. The proteins were expressed and purified as described in Example 1.
(§1) Test for Malate Semialdehyde Reductase Activity: (L)-Malate semialdehyde+NAD(P)H→(L)-2,4-dihydroxybutyric acid+NAD(P) Reaction scheme:
(§2) The assay mixture contained 200 mM Hepes (pH 7.5), 50 mM KCl, 5 mM MgCl2, 0.24 mM NADH or NADPH, and appropriate amounts of purified enzyme or cell extract. Reactions were started by adding 10 mM (L)-malate semialdehyde (malate semialdehyde was prepared freshly for each test, see Example 3). Enzymatic assays were carried out at 30° C. in 96-well flat bottomed microtiter plates in a final volume of 250 μL. The reactions were followed by the characteristic absorption of NAD(P)H at 340 nm (εNADPH=6.22 mM^−1 cm^−1) in a microplate reader (BioRad 680XR).

[3] = molecular target: T2, Metallosphaera sedula succinic semialdehyde reductase (Ms-SSR) double mutant H39R N43H, SEQ ID No. 36 (Metallosphaera sedula, UniProt A4YGN0, H39R/N43H); assay: Malate semialdehyde reductase activity; format: biochemical; conditions: NADH or NADPH, pH 7.5, 30° C., average of at least two independent experiments
T2 sequence (A4YGN0 1-360 H39R/N43H): T1 sequence (A4YGN0 1-360) with H39R, N43H
Procedure: as §1, §2
(§3) Site-directed mutagenesis was carried out using the oligonucleotide pairs listed in Table 6 and the pET28-Mse-SSR plasmid as the template. Point mutations to change the amino acid sequences were introduced by PCR (Phusion 1U, HF buffer 20% (v/v), dNTPs 2.5 mM, direct and reverse primers 1 μM each, template plasmid 200 ng, water). When possible, plasmids created by PCR contained new restriction sites (introduced using silent mutations) in addition to the functional mutation to facilitate identification of mutated clones. The PCR products were digested by DpnI at 37° C. for 2×2 h to remove template DNA, and transformed into NEB DH5-α competent E. coli cells (NEB). The mutated plasmids were identified by restriction site analysis and verified to carry the desired mutations by DNA sequencing.

[4] = molecular target: T3, Metallosphaera sedula succinic semialdehyde reductase (Ms-SSR) mutant H39R, SEQ ID No. 32 (Metallosphaera sedula, UniProt A4YGN0, H39R); assay: Malate semialdehyde reductase activity; format: biochemical; conditions: NADH or NADPH, pH 7.5, 30° C., average of at least two independent experiments
T3 sequence (A4YGN0 1-360 H39R): T1 sequence (A4YGN0 1-360) with H39R
Procedure: as §1, §2, §3

[5] = molecular target: T4, Metallosphaera sedula succinic semialdehyde reductase (Ms-SSR) mutant N43H, SEQ ID No. 34 (Metallosphaera sedula, UniProt A4YGN0, N43H); assay: Malate semialdehyde reductase activity; format: biochemical; conditions: NADH or NADPH, pH 7.5, 30° C., average of at least two independent experiments
T4 sequence (A4YGN0 1-360 N43H): T1 sequence (A4YGN0 1-360) with N43H
Procedure: as §1, §2, §3

Row | Compound | inhibition of malic enzyme [1] | Maximum activity [2] | Maximum activity [3] | Maximum activity [4] | Maximum activity [5]
1 | O=C(O)[C@@H](O)CCO [2,4-DHB, 2,4-dihydroxybutyric acid] | competitive inhibitor |  |  |  | 
2 | O=CC[C@H](O)C(=O)O [malate semialdehyde, (L)-malate semialdehyde] |  | 4.9 μmol/(min * mgprot) | 4.7 μmol/(min * mgprot) | 1.7 μmol/(min * mgprot) | 4.3 μmol/(min * mgprot)

Source: patent US9890400B2, “Method of production of 2,4-dihydroxybutyric acid” (ADISSEO FRANCE S.A.S., priority 2012, dated 2018)
